According to patent US4755513A, “Antimicrobial 1-substituted phenyl-4-oxoquinoline-3-carboxylic acid compounds” (Otsuka Pharmaceutical Company, Limited, priority 1985, dated 1988):
Where two headings read alike, the source gives them in different places. Blank lines part the entries; values can stand above or below the compound they belong to.

Assays:
[1] = tested on: Staphylococcus pyrogens IID S-23; experiment: MIC by serial dilution method on agar plate; format: cell-based
Excerpt: (§1) The microorganisms were used in a concentration of 1×10^8 cells/ml (O.D. 660 mμ, 0.07-0.16) and 1×10^6 cells/ml (100 folds dilution).

[2] = tested on: Staphylococcus aureus FDA 209P; experiment: MIC by serial dilution method on agar plate; format: cell-based
Excerpt: as §1

Escherichia coli No. 29 = experiment: MIC by serial dilution method on agar plate; format: cell-based
Excerpt: (§2) Chemotherapy, 22, 1126-1128 (1974)]. The microorganisms were used in a concentration of 1×10^8 cells/ml (O.D. 660 mμ, 0.07-0.16) and 1×10^6 cells/ml (100 folds dilution).

[3] = tested on: Serratia marcescens IFO 12648; experiment: MIC by serial dilution method on agar plate; format: cell-based
Excerpt: as §2

[4] = tested on: Proteus morganii IID Kono; experiment: MIC by serial dilution method on agar plate; format: cell-based
Excerpt: as §2

[5] = tested on: Klebsiella pneumoniae NCTC 9632; experiment: MIC by serial dilution method on agar plate; format: cell-based
Excerpt: as §2

[6] = tested on: Pseudomonas aeruginosa E-2; experiment: MIC by serial dilution method on agar plate; format: cell-based
Excerpt: as §2

[7] = tested on: Bacillus subtilis ATCC 6633; experiment: MIC by serial dilution method on agar plate; format: cell-based
Excerpt: as §2

[8] = tested on: Acinetobacter calcoaceticus AC-54; experiment: MIC by serial dilution method on agar plate; format: cell-based
Excerpt: as §2

[9] = tested on: Pseudomonas aeruginosa ATCC 10145; experiment: MIC by serial dilution method on agar plate; format: cell-based
Excerpt: as §2

[10] = tested on: Proteus inconstans IFO 12930; experiment: MIC by serial dilution method on agar plate; format: cell-based
Excerpt: as §2

[11] = tested on: Escherichia coli NIHJ JC-2; experiment: MIC by serial dilution method on agar plate; format: cell-based
Excerpt: as §2

[12] = Absorption by oral administration in monkey (plasma concentration, thin layer cup bio-assay); format: in vivo; conditions: 100 mg/kg;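 further: plasma concentration in γ/ml (µg/mL) rather than the printed ng/mL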
Method: The test compounds were dissolved in 0.1N hydrochloric acid or suspended in 0.5% sodium carboxymethyl cellulose solution. The solution or suspension was administered into stomach of monkey (two monkeys) with cathetel. After the administration of test compounds, the blood was collected from the lower limbs vein at a fixed interval with a syringe treated with heparin. The collected blood was centrifuged at 3,000 r.p.m. for 10 minutes to separate the plasma. The concentration of the test compound was measured by a thin layer cup method (a bio-assay), wherein Bacillus subtilis ATCC 6633 was used as a bacteria for determination. Based on a standard curve, the concentration of test compound in plasma was calculated.

minimum inhibitory concentration (MIC) ([1]; 1 × 10^6 cells/ml): 3.12
minimum inhibitory concentration (MIC) ([1]; 1 × 10^8 cells/ml): 6.25
minimum inhibitory concentration (MIC) ([2]; 1 × 10^6 cells/ml): 0.195
minimum inhibitory concentration (MIC) ([2]; 1 × 10^8 cells/ml): 0.39
minimum inhibitory concentration (MIC) (Escherichia coli No. 29; 1 × 10^6 cells/ml): 0.097
minimum inhibitory concentration (MIC) (Escherichia coli No. 29; 1 × 10^8 cells/ml): 0.195
minimum inhibitory concentration (MIC) ([3]; 1 × 10^6 cells/ml): 0.78
minimum inhibitory concentration (MIC) ([3]; 1 × 10^8 cells/ml): 3.12
minimum inhibitory concentration (MIC) ([4]; 1 × 10^6 cells/ml): 0.78
minimum inhibitory concentration (MIC) ([4]; 1 × 10^8 cells/ml): 0.78
minimum inhibitory concentration (MIC) ([5]; 1 × 10^6 cells/ml): 0.195
minimum inhibitory concentration (MIC) ([5]; 1 × 10^8 cells/ml): 0.195
minimum inhibitory concentration (MIC) ([6]; 1 × 10^6 cells/ml): 3.12
minimum inhibitory concentration (MIC) ([6]; 1 × 10^8 cells/ml): 3.12
minimum inhibitory concentration (MIC) ([7]; 1 × 10^6 cells/ml): 0.097
minimum inhibitory concentration (MIC) ([7]; 1 × 10^8 cells/ml): 0.195
minimum inhibitory concentration (MIC) ([8]; 1 × 10^6 cells/ml): 0.39
minimum inhibitory concentration (MIC) ([8]; 1 × 10^8 cells/ml): 0.39
minimum inhibitory concentration (MIC) ([9]; 1 × 10^6 cells/ml): 3.12
minimum inhibitory concentration (MIC) ([9]; 1 × 10^8 cells/ml): 3.12
minimum inhibitory concentration (MIC) ([10]; 1 × 10^6 cells/ml): 3.12
minimum inhibitory concentration (MIC) ([10]; 1 × 10^8 cells/ml): 3.12
minimum inhibitory concentration (MIC) ([11]; 1 × 10^6 cells/ml): 0.195
minimum inhibitory concentration (MIC) ([11]; 1 × 10^8 cells/ml): 0.195
Structure (SMILES): CN1CCN(c2cc3c(cc2F)c(=O)c(C(=O)O)cn3-c2ccc(F)cc2)CC1 [A]

minimum inhibitory concentration (MIC) ([1]; 1 × 10^6 cells/ml): 3.12
minimum inhibitory concentration (MIC) ([1]; 1 × 10^8 cells/ml): 6.25
minimum inhibitory concentration (MIC) ([2]; 1 × 10^6 cells/ml): 0.195
minimum inhibitory concentration (MIC) ([2]; 1 × 10^8 cells/ml): 0.39
minimum inhibitory concentration (MIC) (Escherichia coli No. 29; 1 × 10^6 cells/ml): < 0.048
minimum inhibitory concentration (MIC) (Escherichia coli No. 29; 1 × 10^8 cells/ml): 0.097
minimum inhibitory concentration (MIC) ([3]; 1 × 10^6 cells/ml): 0.195
minimum inhibitory concentration (MIC) ([3]; 1 × 10^8 cells/ml): 0.39
minimum inhibitory concentration (MIC) ([4]; 1 × 10^6 cells/ml): 0.195
minimum inhibitory concentration (MIC) ([4]; 1 × 10^8 cells/ml): 0.195
minimum inhibitory concentration (MIC) ([5]; 1 × 10^6 cells/ml): < 0.048
minimum inhibitory concentration (MIC) ([5]; 1 × 10^8 cells/ml): 0.097
minimum inhibitory concentration (MIC) ([6]; 1 × 10^6 cells/ml): 0.78
minimum inhibitory concentration (MIC) ([6]; 1 × 10^8 cells/ml): 0.78
minimum inhibitory concentration (MIC) ([7]; 1 × 10^6 cells/ml): 0.097
minimum inhibitory concentration (MIC) ([7]; 1 × 10^8 cells/ml): 0.195
minimum inhibitory concentration (MIC) ([8]; 1 × 10^6 cells/ml): 0.195
minimum inhibitory concentration (MIC) ([8]; 1 × 10^8 cells/ml): 0.39
minimum inhibitory concentration (MIC) ([9]; 1 × 10^6 cells/ml): 0.78
minimum inhibitory concentration (MIC) ([9]; 1 × 10^8 cells/ml): 1.56
minimum inhibitory concentration (MIC) ([10]; 1 × 10^6 cells/ml): 0.78
minimum inhibitory concentration (MIC) ([10]; 1 × 10^8 cells/ml): 0.78
minimum inhibitory concentration (MIC) ([11]; 1 × 10^6 cells/ml): < 0.048
minimum inhibitory concentration (MIC) ([11]; 1 × 10^8 cells/ml): 0.097
Structure (SMILES): O=C(O)c1cn(-c2ccc(F)cc2)c2cc(N3CCNCC3)c(F)cc2c1=O [B]

Structure (SMILES): CN1CCN(c2cc3c(cc2F)c(=O)c(C(=O)O)cn3-c2ccc(O)cc2)CC1 [C]
minimum inhibitory concentration (MIC) ([1]; 1 × 10^6 cells/ml): 0.78
minimum inhibitory concentration (MIC) ([1]; 1 × 10^8 cells/ml): 1.56
minimum inhibitory concentration (MIC) ([2]; 1 × 10^6 cells/ml): < 0.048
minimum inhibitory concentration (MIC) ([2]; 1 × 10^8 cells/ml): 0.097
concentration at 0.5 h ([12]; Run 1, 0.5 hour, read-out: Amount of test compd. in plasma): 360 ng/mL
concentration at 1 h ([12]; Run 1, 1 hour, read-out: Amount of test compd. in plasma): 490 ng/mL
concentration at 2 h ([12]; Run 1, 2 hour, read-out: Amount of test compd. in plasma): 650 ng/mL
concentration at 4 h ([12]; Run 1, 4 hour, read-out: Amount of test compd. in plasma): 960 ng/mL
concentration at 7 h ([12]; Run 1, 7 hour, read-out: Amount of test compd. in plasma): 950 ng/mL
concentration at 24 h ([12]; Run 1, 24 hour, read-out: Amount of test compd. in plasma): 900 ng/mL
concentration at 0.5 h ([12]; Run 2, 0.5 hour, read-out: Amount of test compd. in plasma): < 390 ng/mL
concentration at 1 h ([12]; Run 2, 1 hour, read-out: Amount of test compd. in plasma): < 390 ng/mL
concentration at 2 h ([12]; Run 2, 2 hour, read-out: Amount of test compd. in plasma): < 390 ng/mL
concentration at 4 h ([12]; Run 2, 4 hour, read-out: Amount of test compd. in plasma): < 390 ng/mL
concentration at 7 h ([12]; Run 2, 7 hour, read-out: Amount of test compd. in plasma): < 390 ng/mL
concentration at 24 h ([12]; Run 2, 24 hour, read-out: Amount of test compd. in plasma): < 390 ng/mL
concentration at 0.5 h ([12]; average of two runs, 0.5 hour, read-out: Amount of test compd. in plasma, Average): < 280 ng/mL
concentration at 1 h ([12]; average of two runs, 1 hour, read-out: Amount of test compd. in plasma, Average): < 350 ng/mL
concentration at 2 h ([12]; average of two runs, 2 hour, read-out: Amount of test compd. in plasma, Average): < 430 ng/mL
concentration at 4 h ([12]; average of two runs, 4 hour, read-out: Amount of test compd. in plasma, Average): < 580 ng/mL
concentration at 7 h ([12]; average of two runs, 7 hour, read-out: Amount of test compd. in plasma, Average): < 580 ng/mL
concentration at 24 h ([12]; average of two runs, 24 hour, read-out: Amount of test compd. in plasma, Average): < 550 ng/mL
minimum inhibitory concentration (MIC) (Escherichia coli No. 29; 1 × 10^6 cells/ml): < 0.048
minimum inhibitory concentration (MIC) (Escherichia coli No. 29; 1 × 10^8 cells/ml): 0.097
minimum inhibitory concentration (MIC) ([3]; 1 × 10^6 cells/ml): 0.195
minimum inhibitory concentration (MIC) ([3]; 1 × 10^8 cells/ml): 0.39
minimum inhibitory concentration (MIC) ([4]; 1 × 10^6 cells/ml): 0.39
minimum inhibitory concentration (MIC) ([4]; 1 × 10^8 cells/ml): 0.39
minimum inhibitory concentration (MIC) ([5]; 1 × 10^6 cells/ml): < 0.048
minimum inhibitory concentration (MIC) ([5]; 1 × 10^8 cells/ml): 0.097
minimum inhibitory concentration (MIC) ([6]; 1 × 10^6 cells/ml): 0.39
minimum inhibitory concentration (MIC) ([6]; 1 × 10^8 cells/ml): 0.78
minimum inhibitory concentration (MIC) ([7]; 1 × 10^6 cells/ml): 0.097
minimum inhibitory concentration (MIC) ([7]; 1 × 10^8 cells/ml): 0.097
minimum inhibitory concentration (MIC) ([8]; 1 × 10^6 cells/ml): 0.195
minimum inhibitory concentration (MIC) ([8]; 1 × 10^8 cells/ml): 0.39
minimum inhibitory concentration (MIC) ([9]; 1 × 10^6 cells/ml): 0.78
minimum inhibitory concentration (MIC) ([9]; 1 × 10^8 cells/ml): 1.56
minimum inhibitory concentration (MIC) ([10]; 1 × 10^6 cells/ml): 0.39
minimum inhibitory concentration (MIC) ([10]; 1 × 10^8 cells/ml): 0.78
minimum inhibitory concentration (MIC) ([11]; 1 × 10^6 cells/ml): 0.097
minimum inhibitory concentration (MIC) ([11]; 1 × 10^8 cells/ml): 0.097
